Source: ChEMBL document CHEMBL4627415, “Design and Structural Optimization of Dual FXR/PPARδ Activators” (J Med Chem, 2020)
In brackets after ≈: the same amount, converted by molar mass. Activity calls are given as the source filed them. The rule behind the calls is not given here.

How the values were obtained:
Bile acid receptor = molecular target: T1, Bile acid receptor (Homo sapiens, UniProt Q96RI1); assay: Activation of human FXR LBD expressed in HEK293T cells assessed as induction of receptor activation incubated for 12 to 14 hrs by luciferase reporter gene assay; type: cell-based, HEK-293T
T1 sequence (Q96RI1 whole entry): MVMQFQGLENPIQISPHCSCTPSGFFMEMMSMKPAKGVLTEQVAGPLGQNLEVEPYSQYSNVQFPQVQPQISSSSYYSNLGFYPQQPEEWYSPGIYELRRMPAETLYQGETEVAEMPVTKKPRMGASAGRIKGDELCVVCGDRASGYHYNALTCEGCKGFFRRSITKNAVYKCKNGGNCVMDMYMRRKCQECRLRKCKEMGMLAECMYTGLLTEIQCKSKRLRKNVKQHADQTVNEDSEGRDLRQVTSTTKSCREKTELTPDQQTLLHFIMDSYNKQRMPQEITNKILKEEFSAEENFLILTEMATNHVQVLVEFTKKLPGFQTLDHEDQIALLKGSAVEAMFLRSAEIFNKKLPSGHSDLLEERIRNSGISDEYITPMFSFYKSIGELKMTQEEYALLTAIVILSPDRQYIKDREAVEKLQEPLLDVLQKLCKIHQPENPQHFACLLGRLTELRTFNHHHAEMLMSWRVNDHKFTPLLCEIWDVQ

[1] = molecular target: T2, Bile acid receptor (Homo sapiens) (UniProt Q96RI1); assay: Activation of human FXR LBD expressed in HEK293T cells assessed as induction of receptor activation at 10 uM incubated for 12 to 14 hrs by luciferase reporter gene assay; type: cell-based; settings: HEK-293T
T2 sequence (whole entry): T1 sequence (Q96RI1 whole entry)

[2] = molecular target: T3, Retinoic acid receptor alpha (Homo sapiens) (UniProt P10276); assay: Activation of human RAR-alphaLBD expressed in HEK293T cells assessed as induction of receptor activation at 10 uM incubated for 12 to 14 hrs by luciferase reporter gene assay; type: cell-based; settings: HEK-293T
T3 sequence (whole entry): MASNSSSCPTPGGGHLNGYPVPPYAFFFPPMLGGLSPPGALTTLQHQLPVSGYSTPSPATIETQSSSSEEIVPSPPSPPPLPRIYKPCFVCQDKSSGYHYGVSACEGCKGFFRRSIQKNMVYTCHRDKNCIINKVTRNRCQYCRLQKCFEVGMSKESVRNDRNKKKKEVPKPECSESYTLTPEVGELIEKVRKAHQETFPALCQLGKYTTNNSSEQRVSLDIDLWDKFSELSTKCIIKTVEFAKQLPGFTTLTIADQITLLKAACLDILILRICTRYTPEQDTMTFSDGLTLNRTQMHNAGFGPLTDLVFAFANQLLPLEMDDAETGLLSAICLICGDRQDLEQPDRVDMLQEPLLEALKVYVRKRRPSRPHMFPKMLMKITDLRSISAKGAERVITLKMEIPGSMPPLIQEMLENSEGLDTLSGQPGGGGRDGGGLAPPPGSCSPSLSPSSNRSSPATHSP

[3] = molecular target: T4, Peroxisome proliferator-activated receptor gamma (Homo sapiens) (UniProt P37231); assay: Activation of human PPAR-gamma LBD expressed in HEK293T cells assessed as induction of receptor activation at 10 uM incubated for 12 to 14 hrs by luciferase reporter gene assay; type: cell-based; settings: HEK-293T
T4 sequence (whole entry): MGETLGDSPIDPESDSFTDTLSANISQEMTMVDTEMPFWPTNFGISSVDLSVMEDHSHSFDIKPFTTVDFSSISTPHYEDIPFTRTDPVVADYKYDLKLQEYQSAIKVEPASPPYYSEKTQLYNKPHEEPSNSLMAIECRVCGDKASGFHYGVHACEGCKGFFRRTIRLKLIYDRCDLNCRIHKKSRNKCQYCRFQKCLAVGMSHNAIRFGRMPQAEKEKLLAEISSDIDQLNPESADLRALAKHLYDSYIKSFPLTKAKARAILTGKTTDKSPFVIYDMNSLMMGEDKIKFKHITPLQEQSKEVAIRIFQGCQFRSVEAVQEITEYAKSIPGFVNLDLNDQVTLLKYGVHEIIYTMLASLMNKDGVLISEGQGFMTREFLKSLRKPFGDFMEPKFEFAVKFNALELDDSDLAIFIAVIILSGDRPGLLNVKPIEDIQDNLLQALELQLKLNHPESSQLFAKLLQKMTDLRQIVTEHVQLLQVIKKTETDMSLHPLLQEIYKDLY

[4] = molecular target: T5, Oxysterols receptor LXR-alpha (Homo sapiens) (UniProt Q13133); assay: Activation of human LXR-alpha LBD expressed in HEK293T cells assessed as induction of receptor activation at 10 uM incubated for 12 to 14 hrs by luciferase reporter gene assay; type: cell-based; settings: HEK-293T
T5 sequence (whole entry): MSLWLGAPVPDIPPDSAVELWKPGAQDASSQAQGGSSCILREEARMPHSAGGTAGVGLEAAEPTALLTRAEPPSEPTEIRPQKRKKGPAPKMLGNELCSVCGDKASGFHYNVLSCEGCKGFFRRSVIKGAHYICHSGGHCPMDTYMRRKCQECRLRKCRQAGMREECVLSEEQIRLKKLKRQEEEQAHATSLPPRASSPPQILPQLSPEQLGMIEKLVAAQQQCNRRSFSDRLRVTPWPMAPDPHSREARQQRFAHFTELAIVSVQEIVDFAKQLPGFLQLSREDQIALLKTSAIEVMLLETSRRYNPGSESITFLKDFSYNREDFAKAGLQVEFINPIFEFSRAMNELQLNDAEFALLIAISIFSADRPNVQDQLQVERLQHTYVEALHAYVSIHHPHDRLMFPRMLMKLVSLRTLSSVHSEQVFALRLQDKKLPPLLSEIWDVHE

[5] = molecular target: T2, Bile acid receptor (Homo sapiens); assay: Activation of FXR in human HepG2 cells assessed as decrease in CYP7A1 mRNA expression at 3 uM incubated for 8 hrs by quantitative real time PCR analysis; type: cell-based
[6] = Aqueous solubility in pH 8 buffer by HPLC analysis; type: physicochemical
[7] = Stability in Sprague-Dawley rat liver microsomes assessed as remaining parent compound level at 10 uM presence of NADPH regenerating system by HPLC analysis; type: ADME, Microsome; settings: read-out: Stability
HepG2 = assay: Toxicity in human HepG2 cells assessed as reduction in cell viability up to 100 uM incubated for 48 hrs by WST1 assay; type: cell-based; settings: hepg2, 48 h

With CC(C)c1onc(-c2c(Cl)cccc2Cl)c1COc1ccc(CNc2ccc(CC(=O)O)cc2)c(Cl)c1 the EC50 (Bile acid receptor) was 940 nM, the Activity [1] was “Active” and the Activity [2] was “inactive”. The Activity [3] was “inactive”, the Activity [4] was “inactive” and the Activity [5] was “Active”. For the same compound, the solubility [6] was 159 µg/mL (≈ 284 µM), the remaining at 10 µM [7] was 48% and the Activity (HepG2) was “Non-Toxic”.
